What is called AUC(0-inf) is total exposure, with the tail of the curve extrapolated. Read a low AUC(0-inf) as less exposure. In general, AUC(0-t) refers to the area under the concentration-time curve up to a stated or last time point. What is called Cmax is the highest concentration seen after dosing. As usually defined, the Tmax is the time at which the peak concentration occurs. As usually defined, the half-life is the time in which the quantity being followed falls by half. Read a high half-life as slow decline.

For series [1] the following is noted: cited from earlier work.
The nature of series [2]: In vitro dissolution studies. In kind it is physicochemical. The conditions noted are these: phosphate buffer pH 6.8.
The nature of series [3]: Single-dose crossover bioavailability study, REP plasma levels by LC-MS/MS. Type of series: in vivo, rabbits. The conditions noted are these: male, albino, rabbit, po.

`CCOc1cc(CC(=O)N[C@@H](CC(C)C)c2ccccc2N2CCCCC2)ccc1C(=O)O` [Plain REP, Repaglinide]: in series [1], the “Biopharmaceutics Classification System (BCS) class” value is “class II”. Besides, the percentage drug released in series [2] (optimized formulae, alginate film and plain drug, within 30 minutes) came out at 22.981%. The same molecule had a release rate in series [2] (within 10 minutes) of 8.166%. In series [2] (within 15 minutes), this molecule gave a release rate of 19.65%. Besides, in series [3], the area under the curve AUC(0-inf) amounted to 95400 ± 7220 ng·h/mL, the AUC(0-t) turned out to be 93400 ± 5610 ng·h/mL, the highest level (Cmax) was 31900 ± 1620 ng/mL and the time of peak concentration (Tmax) is 1 ± 0.143 h. Moreover, in series [3], the half-life was 1.31 ± 0.117 h and the k el was 0.000147 s⁻¹.
